Measurements: patent US8535661B2, “Enzymatically active compositions for suppressing sulfide generation and methods of use thereof” (LCP Tech Holdings LLC, priority 2007, dated 2013)

Tests used:
[1] = test system: Sulfide-Producing Bacteria; details: reported biocide treatment levels; cited from earlier work
bacteria = experiment: Bacterial counts in treated contaminated metalworking fluid samples; assay type: cell-based
Experimental: (§1) A used metalworking fluid from a Midwest automotive plant and a soluble oil having a high sulfate content were used to prepare synthetic effluent by combining about 200 ml of the oil with about four gallons (about 15 L) of water and one gallon (about 3.84 L) of the contaminated metal working fluid. The mixture was allowed to stand for about ten days and smelled of hydrogen sulfide by the end of this period. The mixture was then stirred and 15 samples (about 500 mL each) were removed and placed in separate containers. The containers were allowed to stand, open to the air, for about 4 additional days, after which time the aerobic bacterial count in each of the sample was measured using Biosan BF test strips. All of the samples contained >10′ bacteria/mL and smelled of hydrogen sulfide, indicating the presence of anaerobic bacteria, as well. The 15 samples, at neutral pH, were then individually treated with different biocides and combinations of biocides with the enzymatic composition of Example 1. The bacterial and yeast/mold counts in each sample were monitored over about 14 days.

yeast and mold = experiment: Mold and yeast counts in treated contaminated metalworking fluid samples; assay type: cell-based
Experimental: as §1

SRB = experiment: Hydrogen sulfide from containers with SRB-contaminated sugar beet pond water
Experimental: A leachate from a sugar beet pond contaminated with SRB was fed into three 5-gallon containers filled with a nutrient source, sulfate and water. The contents in each container consisted of about 500 mL of SRB-contaminated sugar beet pond water, about 3.84 liters of vinegar (about 5% acetic acid content) about 450 mL of 0.5 N sulfuric acid, about 150 g of sodium hydroxide to adjust the pH to about 6.8, the normal pH and enough additional water to achieve a total volume of about 5 gallons. Nitrogen gas was continuously passed through the each container to eliminate any oxygen and to provide a gas flow in which to measure hydrogen sulfide generated in each container. About 500 ppm of a 10% solution of sodium hypochlorite was added to one of the reactors. An identical amount hypochlorite was added to another reactor, along with about 500 ppm of the composition of Example 1. About 500 ppm of the composition of Example 1 was added to the third container (without hypochlorite). The hydrogen sulfide level in the nitrogen gas stream from each container was monitored over time. The container treated only with the composition of the invention went to zero hydrogen sulfide production over about seven days, and stayed at zero for about four days thereafter. The container treated with bleach alone went to zero within six days and remained at zero for less than one day. […] The hydrogen sulfide concentration from the container treated with both hypochlorite and the composition of Example 1 fell to zero over about 13 days and remained at zero for greater than eight days. From the data in FIG. 4, it is clear that the enzymatically active compositions of the invention can work cooperatively with inexpensive biocidal compositions such as hypochlorite to effectively extend the useful lifetime of inexpensive biocides such as hypochlorite.

Desulfovibrio vulgaris = experiment: Sulfide concentration in nitrogen stream from Desulfovibrio vulgaris cultures; assay type: cell-based; details: about 10 mM sodium nitrate; decrease after about 9 hours
Experimental: Laboratory studies were conducted by growing cultures of Desulfovibrio vulgaris, available from NCIMB Ltd, Aberdeen, Scotland, UK as NCIMB 8303 (see Postgate, J. R., The Sulfate-Reducing Bacteria, 2nd Ed., Cambridge University Press, Cambridge; 1984) in 100 mL aliquots of mCSB containing 12 mM sodium sulfate, 30 mM sodium lactate and 10 mM sodium nitrate in one-liter serum bottles sealed with butyl rubber stoppers, which were flushed with nitrogen and autoclaved at about 120° C. prior to use. A 2% inoculum of freshly prepared D. vulgaris culture was added to the medium in each bottle and incubated at about 30° C. Each culture was grown to mid-log phase to achieve a sulfide concentration of about 12.2±1.4 mM before adding about 25 mL of an aqueous 100 ppm solution of the enzymic composition of Example 1 to each culture. Each culture was then sparged with 99.99% pure nitrogen gas and the pH was adjusted to 6.4 using a dilute solution of nitric acid. The sulfide concentration in the nitrogen stream from each culture bottle was monitored as a function of time.

[2] = about 500 ppm of each agent (hypochlorite as 10% solution), pH about 6.8

Row | Compound | Minimum Concentration that prevents sulfide production [1] | Bacterial Counts (bacteria; Day 0) | Bacterial Counts (bacteria; Day 1) | Bacterial Counts (bacteria; Day 3) | Bacterial Counts (bacteria; Day 4) | Bacterial Counts (bacteria; Day 6) | Bacterial Counts (bacteria; Day 8) | Bacterial Counts (bacteria; Day 10) | Bacterial Counts (bacteria; Day 12) | Bacterial Counts (bacteria; Day 14) | Mold and Yeast Counts (yeast and mold; Day 0) | Mold and Yeast Counts (yeast and mold; Day 1) | Mold and Yeast Counts (yeast and mold; Day 3) | Mold and Yeast Counts (yeast and mold; Day 4) | Mold and Yeast Counts (yeast and mold; Day 6) | Mold and Yeast Counts (yeast and mold; Day 8) | Mold and Yeast Counts (yeast and mold; Day 10) | Mold and Yeast Counts (yeast and mold; Day 12) | Mold and Yeast Counts (yeast and mold; Day 14) | also measured
1 | O=CCCCC=O [Glutaraldehyde] | 500 mg/L | – | – | – | – | – | – | – | – | – | – | – | – | – | – | – | – | – | – | –
2 | Benzalkonium chloride | 50 mg/L | – | – | – | – | – | – | – | – | – | – | – | – | – | – | – | – | – | – | –
3 | tetrakis(hydroxymethyl)phosphonium sulfate [Sample 13] | – | >10^7 bacteria/mL | <100 bacteria/mL | <100 bacteria/mL | 100 bacteria/mL | 1000 bacteria/mL | 1000 bacteria/mL | >10^5 bacteria/mL | 10^6 bacteria/mL | >10^7 bacteria/mL | 10^3 | 0 | 0 | 0 | 0 | 100 | 10 | 100 | 10^3 | –
4 | OCl [hypochlorite, sodium hypochlorite] | – | – | – | – | – | – | – | – | – | – | – | – | – | – | – | – | – | – | – | time hydrogen sulfide stayed at zero (SRB; [2]): less than one; time to zero hydrogen sulfide production (SRB; [2]): six; additional suppression of hydrogen sulfide production (SRB; after another identical dose of hypochlorite): less than one
5 | [O]=[Mo](=[O])([O-])[O-] [Molybdate] | 120 mg/L | – | – | – | – | – | – | – | – | – | – | – | – | – | – | – | – | – | – | –
6 | CCCCNC(=O)OCC#CI [Sample 7, 3-iodo-2-propynyl butyl carbamate] | – | >10^7 bacteria/mL | <100 bacteria/mL | <100 bacteria/mL | 100 bacteria/mL | 100 bacteria/mL | 100 bacteria/mL | 1000 bacteria/mL | 10^4 bacteria/mL | 10^5 bacteria/mL | 10^3 | 0 | 0 | 0 | 0 | 100 | 10 | 100 | 10^3 | –
7 | tetrakis(hydroxymethyl)phosphonium sulfate [Sample 14] | – | >10^7 bacteria/mL | <100 bacteria/mL | 100 bacteria/mL | 100 bacteria/mL | 1000 bacteria/mL | 10^5 bacteria/mL | >10^7 bacteria/mL | >10^7 bacteria/mL | >10^7 bacteria/mL | 10^4 | 0 | 0 | 0 | 100 | 10^3 | 10^3 | 10^3 | 10^3 | –
8 | O=NO [Nitrite] | 230 mg/L | – | – | – | – | – | – | – | – | – | – | – | – | – | – | – | – | – | – | –
9 | O=[N+]([O-])[O-].[Na+] [sodium nitrate] | – | – | – | – | – | – | – | – | – | – | – | – | – | – | – | – | – | – | – | extent of decrease in sulfide production relative to the decrease observed with the composition of Example 1 (Desulfovibrio vulgaris): 10-15%
10 | CCCCNC(=O)OCC#CI [Sample 8, 3-iodo-2-propynyl butyl carbamate] | – | >10^7 bacteria/mL | <100 bacteria/mL | <100 bacteria/mL | 100 bacteria/mL | 100 bacteria/mL | 100 bacteria/mL | 10^4 bacteria/mL | 10^5 bacteria/mL | >10^7 bacteria/mL | 10^4 | 0 | 0 | 0 | 100 | 10^3 | 10^3 | 10^3 | 10^3 | –
11 | OCCN1CN(CCO)CN(CCO)C1 [Sample 4, hexahydro-1,3,5-tris(2-hydroxyethyl)-s-triazine] | – | >10^7 bacteria/mL | <100 bacteria/mL | 100 bacteria/mL | 100 bacteria/mL | 1000 bacteria/mL | 10^5 bacteria/mL | >10^7 bacteria/mL | >10^7 bacteria/mL | >10^7 bacteria/mL | 10^3 | 0 | 0 | 0 | 0 | 100 | 10 | 100 | 100 | –
12 | OCCN1CN(CCO)CN(CCO)C1 [Sample 3, hexahydro-1,3,5-tris(2-hydroxyethyl)-s-triazine] | – | >10^7 bacteria/mL | <100 bacteria/mL | <100 bacteria/mL | 100 bacteria/mL | 1000 bacteria/mL | 10^4 bacteria/mL | >10^7 bacteria/mL | 10^6 bacteria/mL | >10^7 bacteria/mL | 10^4 | 0 | 0 | 0 | 10 | 10 | 10^3 | 10^4 | 10^3 | –
